Where two headings read alike, the source gives them in different places.
Tests used:
DPP4 epitope peptide [1] = tested on: DPP4 epitope peptide
Experimental: For this test, the following two groups were prepared: a physiological saline group and an OSK-1-DPP4 conjugate group (100 μg/mouse) (6 animals per group). Test samples were intracutaneously administered to Balb/c mice 3 times at 2-week intervals. Before the first administration and every 2 weeks until 8 weeks after the first administration, blood samples were collected, and the antibody titer against the DPP4 epitope peptide was measured by ELISA.
For this test, the following three groups were prepared: a KLH-DPP4 conjugate group (20 μg/mouse), an OSK-1-DPP4 conjugate group (100 μg/mouse) and an OSK-1-DPP4 conjugate (100 μg/mouse) plus Alum (Alhydrogel 2% (InvivoGen) 1 mg/mouse) group (2 animals per group). […] Before the first administration, every 2 weeks until 6 weeks after the first administration, and 12 weeks after the first administration, blood samples were collected, and the antibody titer against the DPP4 epitope peptide was measured by ELISA.
Six types of OSK-1-DPP4 conjugates containing different mouse DPP4 epitope peptides (SEQ ID NOs: 3, 5, 6, 8, 18 and 19) were intracutaneously administered to Balb/c mice at a dose of 100 μg per animal 3 times at 2-week intervals. Before the first administration and every 2 weeks after the first administration, blood samples were collected, and the antibody titer against each epitope peptide was measured by ELISA. […]

DPP4 = conditions: OSK-1-DPP4-17 100 μg/mouse; KLH-DPP4-17 20 μg/mouse mixed with Alum 1 mg/mouse; 4 administrations; 21 weeks; FIG. 8
Experimental: To a KLH-DPP4-17 group of mice, KLH-DPP4-17 and Alum (Alhydrogel 2% (InvivoGen)) were intracutaneously administered as a mixture at doses of 20 μg/mouse and 1 mg/mouse, respectively. To an OSK-1-DPP4-17 group of mice, OSK-1-DPP4-17 was intracutaneously administered at a dose of 100 μg/mouse. In either group, the conjugate was intracutaneously administered to Balb/c mice 3 times at 2-week intervals, and the 4th administration was performed at 11 weeks after the first administration. At 21 weeks after the first administration, blood samples were collected, and the amount of serum IgE antibody against DPP4 was measured by ELISA.

DPP4 epitope peptide [2] = conditions: 4 administrations; blood at 11 weeks; FIG. 3
Experimental: For this test, the following three groups were prepared: an OSK-1-DPP4 conjugate group (100 μg/mouse), a KLH-DPP4 conjugate (20 μg/mouse) plus Alum (Alhydrogel 2% (InvivoGen) 1 mg/mouse) group and a KLH-DPP4 conjugate (20 μg/mouse) plus OSK-1 (100 μg/mouse) group. Test samples were intracutaneously administered to Balb/c mice 3 times at 2-week intervals and at 9 weeks after the start of the administration, 4 times in total. At 11 weeks after the start of the administration, blood samples were collected, and the titer of each IgG subclass of antibodies against the DPP4 epitope peptide was measured by ELISA.

B16F10 melanoma cells [3] = conditions: vaccination once a week 4 times before implantation of B16F10 (1×10^5 cells/mouse)
Experimental: In addition, the adjuvant effect of the OSK-1 peptide on the antitumor effect of a WT1 peptide vaccine was also examined. For this test, the following four groups were prepared: a physiological saline group, a WT1 peptide (100 μg/mouse) plus poly(I:C) (InvivoGen; Poly(I:C) HMW VacciGrade, 50 μg/mouse) group, a WT1 peptide (100 μg/mouse) plus OSK-1 peptide (100 μg/mouse) group and an OSK-1-WT1 conjugate (350 μg/mouse) group (6 animals per group). The vaccines were administered to C57BL/6J mice once a week, 4 times in total. One week after the 4th administration, B16F10 melanoma cells (1×10^5 cells/mouse) were implanted into the dorsal skin. The vaccines were administered again one week after the cell implantation. The body weight and the diameter of the tumor were measured twice a week after the cell implantation. The diameter of the tumor was measured using a digital caliper, and the tumor volume was calculated by the formula: (major axis)×(minor axis)^2.

B16F10 melanoma cells [4] = conditions: 350 μg/mouse, vaccination started on day of implantation of B16F10 (3×10^5 cells/mouse)
Experimental: The antitumor effect of the same OSK-1-WT1 conjugate as used in Reference Example 1 was assessed. For this test, the following four groups were prepared: a physiological saline group, a WT1 peptide (100 μg/mouse) plus poly(I:C) (InvivoGen; Poly (I:C) HMW VacciGrade, 50 μg/mouse) group, an OSK-1-WT1 conjugate (350 μg/mouse) group and a cisplatin (5 mg/kg) group (10 animals per group). B16F10 melanoma cells (3×10^5 cells/mouse) were implanted to C57BL/6J mice, and at the same day, the vaccines were intracutaneously administered into the dorsal skin. The day of cell implantation was designated as Day 0. The vaccines were administered on Day 7, Day 14, Day 21, Day 28 and Day 35. Twice a week after the cell implantation, the diameter of the tumor was measured using a digital caliper, and the tumor volume was calculated by the formula: (major axis)×(minor axis)^2.

Substance | antibody production against the DPP4 epitope peptide (antibody titer, ELISA) (DPP4 epitope peptide [1]; 100 μg/mouse intracutaneously 3 times at 2-week intervals, blood until 8 weeks, FIG. 1) | antibody production-inducing capability (antibody titer against the DPP4 epitope peptide) (DPP4 epitope peptide [1]; OSK-1-DPP4 100 μg/mouse, KLH-DPP4 20 μg/mouse, Alum 1 mg/mouse, 3 times at 2-week intervals, up to 12 weeks, FIG. 2) | IgE production against the target protein (serum IgE antibody against DPP4) (DPP4) | titer of each IgG subclass of antibodies against the DPP4 epitope peptide (DPP4 epitope peptide [2]) | inhibitory effect on tumor growth (tumor volume) (B16F10 melanoma cells [3]; FIG. 4) | survival benefit (survival rate) (B16F10 melanoma cells [3]; FIG. 5) | inhibitory effect on tumor growth (tumor volume) (B16F10 melanoma cells [4]; FIG. 6) | survival benefit (survival rate) (B16F10 melanoma cells [4]; FIG. 7)
Ac-ELKLIFLHRLKRLRKRLKRK-X-ENSTFESFG (X=ε-Acp) [OSK1-DPP4-17] | antibody production against the DPP4 epitope peptide was observed | comparable to that of the KLH-DPP4 conjugate | no IgE production against the target protein was observed | IgG2a and IgG2b, which are Th1-type IgG subclasses, were also produced at high levels in addition to IgG1 |  |  |  | 
Ac-ELKLIFLHRLKRLRKRLKRK-X-RMFPNAPYL (X=ε-Acp) [OSK-1-WT1 conjugate] |  |  |  |  | the inhibitory effect on tumor growth and the survival benefit were observed | the inhibitory effect on tumor growth and the survival benefit were observed | modest, but the tumor volume was kept at lower levels than that of the physiological saline administration group (negative control) until Day 32 | comparable to those in the WT1 peptide plus poly(I:C) group and the cisplatin group
